Experiments:
[1] = test system: Schizosaccharomyces pombe; assay: Replication checkpoint: progression through mitosis of synchronous cultures in the presence of HU; assay type: cell-based; details: 12 mM HU
Method: FIGS. 5A–5B are graphs which illustrate that replication checkpoint is abolished in Cds1 chk1 cells as described in Example 2. […] Progression through mitosis in the presence of 12 mM HU was monitored by scoring binucleate or septated cells. The cds1 chk1 double mutant and rad3 cells underwent mitosis in the presence of HU, whereas division was arrested in control strains (wild-type, Cds1 and chk1 single mutants).
(§1) The cell lysates were obtained from a variety of strains of S. pombe cells having the following genotypes: PR109, wild-type; NB2117, cds1::ura4+; NB2118, cds1:2HA6His:ura4+; NR1826, rad3::ura4+; OM591, cdc22-M45; NR1593, rad1::ura4+; NR1592,chk1::ura4+; BF1758, nmt1:GST:chk1:leu1+; BF1916, nmt1:GST:cds1:leu1+; OM2173, mik1:2HA6His:ura4+; OM2183, mik1:2HA6His:ura4+cds1::ura4+; PR712, mik1::ura4+; and BF2115, cds1::ura4+chk1::ura4+. All strains were leu1-32 ura4-D18. All nmt1 promoter constructs were integrated at the leu1-32 locus. Growth media and general methods for S. pombe have been described [Moreno et al, Meth. Enzymol., 194:795 (1991)]. Unless otherwise indicated, yeast cultures were grown in YES medium at 30 C. […]
Cells were first grown in YES (yeast extract and glucose) medium to an OD600 of 1.0 and then treated with HU (12 mM) for 90 min at 30 C. […] Cells were scored for progression through mitosis by microscopic observation. […]

Cds1 [2] = assay: Binding of Cds1HAHIS from cell lysates to GST:Wee1 (immunoblot); assay type: cell-based, Schizosaccharomyces pombe; details: lysates of Cds1HAHIS cells treated 3.5 hr with HU vs mock-treated
Excerpt: FIGS. 3A–3D illustrate that HU stimulates Cds1 kinase activity, binding of Cds1 to GST:Wee1^70 in lysates and accumulation of Mik1 as described in Example 2. FIG. 3A is a photograph of an analysis of proteins which illustrates that HU stimulates Cds1 binding to GST:Wee1^70. A culture of cells expressing Cds1^HAHIS from the cds1 genomic locus was split and treated for 3.5 hr with HU or mock-treated. The cultures were split again and samples processed for Ni^2+-NTA purification of Cds1^HAHIS in denaturing conditions or purification of proteins that bind GST:Wee1 proteins in nondenaturing conditions. After extensive washing, samples were resolved by 10% SDS-polyacrylamide gel electrophoresis and subjected to immunoblot analysis.
HU may increase the abundance of Cds1, or it may make Cds1 competent to associate with Wee1, or perhaps the replication checkpoint enhances the kinase activity of Cds1. Cells expressing Cds1^HAHIS were treated with HU or mock-treated; lysates were made and precipitated with GST:Wee1 proteins. Association of Cds1^HAHIS with GST:Wee1 was detected in lysates from cells treated with HU, whereas no Cds1^HAHIS associated with GST:Wee1 in mock-treated samples (FIG. 3A).

[3] = test system: Schizosaccharomyces pombe; assay: HU sensitivity (survival) of S. pombe strains; assay type: cell-based; details: for sensitivity to killing by HU: 12 mM HU
Method: FIG. 3D is a photograph of cell cultures which illustrates that Mikl is important for survival of HU treatment. Serial dilutions or wild-type and mik1 cells were plated in YES medium supplemented with 0 or 6 mM HU and incubated for 2 days at 30° C.
Cells were first grown in YES (yeast extract and glucose) medium to an OD600 of 1.0 and then treated with HU (12 mM) for 90 min at 30 C. Synchronous cells were then obtained by centrifugal elutriation with a Beckman JE-5.0 elutriation rotor. These cells were diluted to an OD600 of 0.3 in YES containing 12 mM HU and grown at 30 C. for a further 4 hr. Cells were scored for progression through mitosis by microscopic observation. HU sensitivity studies were carried out with cells grown to an OD600 of 0.3 in YES medium and then diluted to 13,000 cells/ml in YES media containing HU (12 mM), followed by growth at 30 C. for a further 8 hr. Samples (75 μl) were taken at regular intervals, plated onto YES plates and grown for 4 days at 30 C. to determine survival.

Cds1 [4] = assay: Cds1HAHIS autophosphorylation assay after HU treatment of cells; assay type: cell-based, Schizosaccharomyces pombe; details: Cds1HAHIS purified from HU or mock-treated cells
Excerpt: FIG. 3B is a photograph of an analysis of proteins which illustrates that HU activates Cds1 kinase activity. In a separate experiment Cds1^HAHIS was purified in native conditions and assayed for autophosphorylation activity (upper panel). Immunoblot analysis confirmed that similar amounts of Cds1HAHIS were recovered in the HU and mock-treated samples (lower panel).
Cds1^HAHIS was also purified from HU or mock-treated cells and assayed in an autophosphorylation assay. Phosphorylation of Cds1 was increased in samples from cells treated HU (FIG. 3B). Similar results were obtained using GST:Wee1^70 as a substrate. Thus HU apparently both activates Cds1 as a kinase and stimulates binding to Wee1.

GST:Wee1 = GST:Wee1 phosphorylation by associated kinase from lysates of HU-treated cells; assay type: cell-based, Schizosaccharomyces pombe; details: lysates of cells treated with 12 mM HU, 1 hr time course at 30° C.
Method: FIG. 1B is a photograph of an analysis of proteins from cells that were treated with 12 mM HU for a 1 hr time course at 30° C. Cell lysates were incubated with GST:Wee1 proteins bound to GSH-Sepharose. The GSH-Sepharose was washed and assayed for associated kinase activity. The positions of GST:Wee1^152 and GST:Wee1^70 following 12% SDS-polyacrylamide gel electrophoresis are shown.
The GST:Wee1^152 and GST:Wee1^70 proteins prepared in Example 1 were used to study yeast cellular functions. To that end, the isolated proteins were bound to glutathione (GSH)-Sepharose and mixed with cell lysates from the fission yeast Schizosaccharomyces pombe (S. pombe) harvested at intervals during incubation with hydroxyurea (HU).
as §1, with “locus.” for “locus. Growth media and general methods for S. pombe have been described [Moreno et al, Meth. Enzymol., 194:795 (1991)]. Unless otherwise indicated, yeast cultures were grown in YES medium at 30 C.”
The proteins bound to GSH-Sepharose were washed, incubated with [gamma-^32P]ATP and analyzed by SDS-polyacrylamide gel electrophoresis (FIG. 1B). […]

Mik1 = assay: Mik1HAHIS abundance in HU-treated cells (immunoblot); assay type: cell-based, Schizosaccharomyces pombe; details: cells treated 4 hrs with 12 mM HU vs mock-treated
Method: FIG. 3C is a photograph of an analysis of proteins which illustrates that Cds1 and Rad3-dependent increase in Mik1 abundance in HU-treated cells. Wild-type, Cds1 and rad3 cells in which genomic mik1 encoded Mik1^HAHIS protein were incubated for 4 hrs in YES at 25° C. with 12 mM HU or mock-treated. Mik1HARIS protein was purified by Ni^2+-NTA purification in denaturing conditions and detected by immunoblotting with antibodies to HA.
Phosphorylation of Wee1 by Cds1 may play a role in the DNA replication checkpoint. However, wee1 mutants arrest division in response to HU (Enoch et al, Cell, 60:665, 1990), thus another protein that controls Cdc2 Tyr^15 phosphorylation must also be regulated by the replication checkpoint. The kinase Mik1 phosphorylates Cdc2 on Tyr^15 (Lundgren et al, Cell, 64:1111, 1991), therefore the abundance of Mik1 was monitored in HU-treated cells using a strain expressing Mik1^HAHIS from the genomic locus. […] The abundance of mik1 mRNA was unchanged in HU-treated cells, thus HU must influence Mik1 synthesis or turnover. […] Mik1 is a dose-dependent inhibitor of mitosis (Lundgren et al, Cell, 64:1111, 1991), thus the increase of Mik1 abundance in HU-treated cells should help to enforce the checkpoint.

SMILES: NC(=O)NO [HU, hydroxyurea]
- cell division in the presence of HU ([1]; Cds1 chk1 double mutant cells): underwent division
- cell division in the presence of HU ([1]; wild-type cells, Cds1 and chk1 single mutants): arrested division
- association of Cds1 with GST:Wee1 (Cds1 [2]): enhanced association
- sensitivity to killing by HU ([3]; Cds1 cells): moderately sensitive
- sensitivity to killing by HU ([3]; Cds1 chk1 double mutant cells): acutely sensitive to killing
- sensitivity to HU ([3]; mik1 mutants, YES medium with 0 or 6 mM HU, 2 days at 30° C.): enhanced sensitivity
- sensitivity to killing by HU ([3]; wild-type and chk1 cells): not sensitive
- phosphorylation of Cds1 (autophosphorylation) (Cds1 [4]): increased
- phosphorylation of GST:Wee1^152 and GST:Wee1^70 (GST:Wee1): increased
- amount of Mik1HAHIS (Mik1): increased
